We go through 4 molecules from patent US5591740A, “Use of debromohymenialdisine for treating osteoarthritis” (OsteoArthritis Sciences, Incorporated, priority 1995, dated 1997).

Assay [1] concerns chondrocytes, interleukin-1 induced proteoglycan degradation. The assay is described as follows: Chondrocyte cell culture matrix breakdown assay (IL-1 induced 35S proteoglycan release). The class given is cell-based, calf. As to conditions: for IC50: Bos taurus, chondrocyte matrix breakdown assay, 1 ng/ml rhIL-1α, 22-24 hours, read-out: IC50, inhibition of proteoglycan degradation; for dose response curve (FIG. 1): percent inhibition over a range of concentrations. Here is the method: A cell culture assay was used to-measure the ability of the test compounds to slow the degradation of the extracellular matrix by a metalloproteinase. This assay measured the amount ^35 S released from chondrocytes grown in a media with ^35 S labeled sodium sulfate. The cell culture assay was carried out as follows:
Two or three 1 to 3 week old calf joints were obtained from an abattoir. The proximal end of the shank was about 4-5" long to facilitate immobilization in the holder. The joint was kept cool and transported on ice. The exterior of the intact joints was washed well with a suitable anti-microbial soap, rinsed clean with warm water, rinsed in betadine and then finally rinsed with 70% ethanol. Up to this point all steps were done in a manner to ensure that the joint was kept as clean as possible. All subsequent steps were performed in a sterile field (i.e., in a Edgeguard laminar flow tissue culture hood). The joint was immobilized and the synovial fluid was aspirated with a needle and syringe. The joint was then cut open to expose the articular cartilage using a #21 scalpel. Using locking hemostats, forceps and a #15 scalpel, the cartilage was excised in full thickness pieces. Care was taken not to cut too deep into the subchondral bone to prevent bleeding. The cartilage pieces were placed into a 50 mL centrifuge tube containing 25 mL of Delbecco's phosphate buffered saline (D-PBS) supplemented with 1% antibiotic solution (penicillin, streptomycin and fungizone; GIBCO/BRL). The slices from each joint were then placed into separate 50 mL centrifuge tubes. The D-PBS was decanted and replaced with 25 mL of fresh D-PBS supplemented with antibiotics and subsequently agitated gently.
The cartilage pieces were transferred to a fresh 50 mL centrifuge tube and rinsed once more with 25 mL of D-PBS minus antibiotics. An enzymatic digestion solution containing 1 mg/mL of hyaluronidase in serum-free 1:1 DMEM/Ham's F-12 (DMEM/F12) was prepared. This solution was filter sterilized with […] Milex--GV filter and kept on ice until ready to use. The cartilage pieces were digested with approximately 5 mL of hyaluronidase solution per joint for 2×15 minutes at 37° C. in the 50 mL centrifuge tube with gentle agitation at the 15 minute mark. This procedure removed residual hyaluronic acid from the surface of the chips. The enzymatic digestion solution was then aspirated and the cartilage pieces were rinsed with 25 mL of D-PBS.
A second enzymatic digestion solution containing 2.5 mg trypsin and 2 mg collagenase P per mL serum-free DMEM/F12 was prepared. This solution was also filter sterilized with a […] Millex--GV filter and kept on ice until ready to use. The cartilage pieces were digested with approximately 5 mL of trypsin: collagenase solution per joint for 2×15 minutes at 37° C. in the 50 mL centrifuge tube with gentle agitation at the 15 minute mark. This procedure removed the synovial fibroblasts and any adherent connective tissue from the surface of the chips. The enzymatic digestion solution was then carefully removed and saved and the cartilage pieces were rinsed with 25 mL of D-PBS.
A third enzymatic solution containing 2 mgs of collagenase P (BMB) per mL serum-free DMEM/F12 was prepared. This solution was filter sterilized with a […] Millex--GV filter and kept on ice until ready to use. The pre-digested cartilage pieces were finally digested with approximately 20 mL of enzymatic digestion solution per joint for 5-6 hours at 37° C. in a Bellco stirring digestion flask, at which point the cartilage was fully digested away.
The enzymes in the synovial fibroblast and chondrocyte digest were neutralized by addition of an equal volume of DMEM/F12 supplemented with 5% fetal bovine serum. Fibroblasts were plated in DMEM at a cellular density of 6.6×10^3 cells per cm^2. […]

The test system of assay [2] is bovine cartilage explants, interleukin-1 stimulated proteoglycan degradation. The experiment in a line: Bovine articular cartilage explant assay (IL-1 induced 35S-GAG release). As to conditions: for IC50: Bos taurus, bovine cartilage explants, rhIL-1α 5 ng/mL, 3-4 days, read-out: IC50, inhibition of interleukin-1 stimulated proteoglycan degradation; for dose response curve (FIG. 2): percent inhibition over a range of concentrations. The class given is cell-based, bovine (1 to 3 week old calf). An excerpt: A tissue culture assay was used to measure the ability of the compounds of the present invention to slow the degradation of the extracellular matrix by metalloproteinases. This assay measured the amount of ^35 S-glycosaminoglycan (^35 S-GAG) released from labeled bovine cartilage explants.
Knee joints from a 1 to 3 week old calf were obtained immediately after sacrifice from the Abattoir and then transported on ice. The intact joints were washed well with tap water and soaked in 50% (v/v) Povidine iodine solution, obtained from Burre National, Inc., Baltimore, Md. All subsequent steps were performed in a laminar flow tissue culture hood using standard sterile technique. The joint was immobilized in a shank holder and the joint capsule was cut open to expose the articular cartilage. Cartilage explant plugs, approximately 15 mg wet weight, were removed from the flat articulating surfaces in the lower-most region of the knee joint using a sterile steel cork-borer and collected in a 250 mL roller bottle containing about 100 mL fresh Delbecco's minimum essential medium (DMEM), obtained from Gibco BRC, Life Technologies, Gaithersburg, Md., containing 4.5 g/l (D)-glucose and (L)-glutamine, without sodium pyruvate. The fresh media also contained enough Hepes buffer and sodium bicarbonate such that the pH was about 7.4. The media was then further supplemented just before use with 100 units Penicillin, 100 μg Streptomycin, and 50 μg (L)-ascorbic acid per mL of medium.
Once collected, the explant plugs were washed four times with 50 mL fresh DMEM. The plugs were then placed in the incubator for a minimum of 1 hour to equilibrate, before proceeding to make disks from the articulating surface of each plug. A 1 mm thick disk was sliced from individual plugs from the end that was the articulating surface of the joint. The plug was held steady in the sterile template (4 mm diameter ×1.5 mm deep) using sterile forceps. A scalpel blade was used to carefully slice off the disk. Only the superficial articulating surface responded well in culture.
Individual disks obtained were transferred to a tissue culture flask containing about 100 mL fresh media. The flask containing the disks was placed in an incubator at 37° C. (with 5% CO2, 95% air) and allowed to equilibrate overnight and at least one additional day before labeling. When ready to label, the old media was replaced with 50 mL fresh media containing about 500 μCi ^35 S-Sodium Sulfate. The plugs were labeled in bulk for about 48 hours. […]
The TC plates were then placed in the incubator and cultured for 3-4 days (initial incubation with rhIL-1α alpha takes at least 3 days to stimulate endogenous metalloproteinases). A 50 μL aliquot of media from each TC plate was saved and counted. […]

The test system of assay [3] is osteoarthritis in Hartley guinea pigs following surgical induction of joint instability. The experiment in a line: Slowing the development of osteoarthritis in the Hartley guinea pig model (surgically induced joint instability, Mankin scoring). The class given is in vivo, male Hartley guinea pigs. Also noted: Structure (Mankin criteria), mean / Cells (Mankin criteria), mean / Safranin O (Mankin criteria), mean / mean Mankin score: scale not given here. Conditions: for Cells (Mankin criteria), mean: untreated 1.6; for Safranin O (Mankin criteria), mean: untreated 2.3; for Structure (Mankin criteria), mean: untreated 4.6; for mean Mankin score: untreated 10.3, placebo 10.0. As to the method:
Thirty five male Hartley guinea pigs 40 days old, were purchased from Charles River Laboratories. Each group consisted of 5 animals that were euthanized at 1, 2, 3, 4, 5, 6 and 8 months post-surgery. Ketamine 40 mg/kg, Xylazine 5 mg/kg and Fentanyl 0.1 mg/kg sc were used for anesthesia. Naloxone hydrochloride was given at 0.1 mg/kg following surgery. For radiography, animals were sedated with Xylazine 10 mg/kg sc and superficially anesthetized with Ketamine 20 mg/kg sc.
Surgery was performed under direct visualization using a dissecting microscope at 7.5 fold magnification. A medial longitudinal parapatellar incision was followed by division of the capsule and synovial layers. A partial medical menisectomy was followed by transection of the anterior cruciate ligament. Confirmation of the ligament transection was obtained by a positive anterior drawer sign. The capsule was continuously sutured with 5-0 VICRYL™ and the skin was closed with staples.
After the animals were sacrificed, joints were prepared for histological examination by standard techniques. Joints were fixed for 14 days in 10% formalin. Knees were then decalcified in 20% Formic acid in PBS, pH 7.2 for 24 hours. Sections cut at 5μ were stained with Safranin O, Fast Green and Hematoxylin. Radiographic evaluation was performed with antero-posterior and lateral views. A dental X-Ray unit and DF-50 film were used. Histopathological scoring was performed by two blinded, independent observers using the Mankin criteria (Mankin, H. J., "Biochemical and Metabolic Aspects of Osteoarthritis," Orthopedic Clinics of North America, 2:19-30 (1971). This evaluation system grades the structural defects, cellular changes, loss of proteoglycan as reflected by Safranin 0, and disruption of an antatomic landmark reflecting the transition to calcified cartilage. The Mankin scoring criteria are listed below:
Surgery was performed on twenty-four male Hartley guinea pigs during which the joint instability was induced according to the procedure described in Example 4.
The animals were divided into four groups of six. Beginning two weeks following surgery, each animal in the first two groups was given weekly intraarticular injections into the surgically treated joints of 0.3 mg (6 mg/ml) or 1.5 mg of Z-debromohymenialdisine (30 mg/ml) in a vehicle containing carboxymethylcellulose (2 mg/ml saline) and polysorbate 80 (0.5 mg/ml saline). Total volume of the injection was 50 μl. Group III animals were given weekly intraarticular injections of a placebo, while Group IV animals were left untreated. The treatments were continued for seven weeks.
At the termination of the system, the animals were euthanized and […] evaluation of the knees was performed as described in Example 5 using the Mankin criteria. The results of the histological evaluation at seven weeks post surgery are depicted in FIG. 4.

Where [4] appears, read: 0.3 or 1.5 mg/week intraarticular.

Structures are written as SMILES.

Turning to `O=C1NC(=O)/C(=C2/CCNC(=O)c3[nH]c(Br)cc32)N1` [Axinohydantoin (3), axinohydantoin], the IC50 (as a rule, the concentration that gives 50% inhibition) in assay [1] was over 50 µM.

As for `NC1=N/C(=C2\CCNC(=O)c3[nH]ccc32)C(=O)N1` [E-debromohymenialdisine], in assay [1], the IC50 stood at 6 µM and the “dose response curve (FIG. 1)” value is given as “broad, shallow dose response curve”. Besides, in assay [2], the IC50 turned out to be 50 µM and the “dose response curve (FIG. 2)” value is reported as “broad, shallow dose response curve”.

On to `NC1=NC(=O)/C(=C2\CCNC(=O)c3[nH]c(Br)cc32)N1` [Hymenialdisine (2), hymenialdisine], for which the IC50 in assay [1] is over 50 µM.

With `NC1=N/C(=C2/CCNC(=O)c3[nH]ccc32)C(=O)N1` [Z-debromohymenialdisine], in assay [1], the IC50 was 0.8 µM and the “dose response curve (FIG. 1)” value is “broad, shallow dose response curve”. For the same molecule, in assay [2], the IC50 turned out to be 2 µM and the “dose response curve (FIG. 2)” value was “broad, shallow dose response curve”. Also, in assay [3] (0.3 mg weekly intraarticular), the “Cells (Mankin criteria), mean” value stood at 1.2; the “Safranin O (Mankin criteria), mean” value was found to be 1.5; the “Structure (Mankin criteria), mean” value was 3.5. In addition, the “mean Mankin score” value in assay [3] (0.3 mg/week intraarticular) is reported as 6.7. Besides, in assay [3] (1.5 mg weekly intraarticular), the “Cells (Mankin criteria), mean” value is listed as 1.5; the “Safranin O (Mankin criteria), mean” value is recorded as 1.1; the “Structure (Mankin criteria), mean” value stood at 1.6. The “mean Mankin score” value in assay [3] (1.5 mg/week intraarticular) came out at 5.5. In assay [3] (setting [4]), the “disease progression, result in words” value is reported as “significant reduction in disease progression”; the “structural and biochemical changes in developing osteoarthritis (loss of Safranin O staining), result in words” value was “able to diminish the structural and biochemical changes”. In addition, the “joint degeneration and cartilage degradation, result in words” value in assay [3] (animal model, weekly intraarticular) was “effective in slowing joint degeneration and cartilage degradation”.
